Source: patent publication US10179164B2, “Method for inducing an immune response for treatment of cancer and autoimmune diseases or conditions” (priority 2011, dated 2019)

Legend:
[1] = test system: IL-12p70; assay: Intracellular IL-12p70 flow cytometry of CD3- bone marrow cells; format: cell-based, mouse (C57BL/6); settings: CD3- BM cells, PE-anti-IL-12p70
Text: CD3+ cells were removed from BM cells using the fluorescence activated cell sorter and then untreated or treated with JgD, gD or JH. Flow cytometric analysis of the sorted population confirmed the removal of CD3 positive cells. The CD3− BM cells were labeled with FIT C-anti-CD8 (Beckman Coulter (clone 53-6.7)), fixed with paraformaldehyde, permeabilized with saponin (Intraprep, Immunotech), labeled with PE-anti-IL-12p70 (Beckman Coulter) and then post fixed with paraformaldehyde prior to immunofluorescence analysis.

[2] = test system: C57BL/6 bone marrow cells (monocyte population); assay: Flow cytometry of CD11c and CD86 expression on peptide-treated bone marrow cells; format: cell-based, mouse (C57BL/6); settings: BM monocyte population by light scatter, second day after treatment; for CD11c expression: PE-anti-CD11c, versus untreated; for CD86 expression: PE-anti-CD86, versus untreated
Protocol: Bone marrow (BM) cells were prepared. Briefly, the femurs and tibias were obtained from five C57BL/6 female mice, and the ends were removed to expose the hollow bone packed with marrow. BM cells were flushed from the bones with cold Hanks Balanced Salt Solution (HBSS) using a sterile disposable 22 g needle and pooled. Red blood cells (RBCs) were lysed using Tris-buffered ammonium chloride and resultant cells were washed 3 times in HBSS, BM cells were suspended in tissue culture medium (TCM) (RPMI 1640 with glutaminic plus […] PenStrep, 50 μM 2-mercaptoethanol, and 5% fetal calf serum) at approximately 5×10^6 cells/ml and incubated for 1 hour at 37° C. in a 5% CO2 atmosphere in plastic tissue culture flasks to remove adherent, mature macrophages. Decanted non-adherent cells were resuspended in TCM and 1.5×10^6 BM cells in 1 ml were placed into each well of a 24 well tissue culture plate (Falcon) and either left untreated or treated with […] of peptide J or JgD LEAPS™ heteroconjugate. After incubation for 48 hrs at 37° C., cells were viewed and photographed for changes in morphology, tissue culture supernatants were removed and the cells were prepared for flow cytometric analysis.
For analysis of CD11c and CD86 expression, untreated and peptide treated BM cells, prepared and treated as described above, were labeled with PE-anti-Cd11c or PE-anti CD86 (Beckman Coulter Fullerton, Calif.) At least […] were analyzed (Altra FACS, Beckman Coulter) using forward and side scatter parameters to limit (gating) the immunofluorescence analysis to cells of the size and granularity of monocytes and dendritic cells.
The monocyte population of BM cells, as defined by light scatter parameters, was analyzed on the second day after treatment with J, gD, JgD or JH.

[3] = test system: collagen induced arthritis (CIA) model in DBA/IJ mice; assay: Collagen induced arthritis (CIA) model, Arthritis Index; format: in vivo
Protocol: The following study is of CEL-2000 therapeutic vaccine for collagen induced arthritis (CIA) where the first step was to identify a good animal model for testing the vaccine, which is the collagen induced arthritis (CIA) model in young (6-7) week old male DBA/IJ mice. These mice received 2 injections of bovine collagen the first in complete Freund's adjuvant (CFA) on day 0 and then 3 weeks later on day 21, in Incomplete CFA. After the second collagen injection, the mice were evaluated daily for any joint swelling or redness. Each of the paws was scored on a 4 point scale (Arthritis Index (AI) with respect to the number of digits with symptoms and the thickness of the paw measured, at least 3-4 times a week. Each mouse was weighed weekly.
When significant disease is noted, usually about day 28, the mice are grouped (n=8) with a range of scores between 1 and 6 and group mean of 2.5 to 3. At this point the therapy begins according to protocol. Controls include groups with induced disease but no therapy and groups of healthy mice without induced disease. A therapy control of Enbrel® (3 mg/kg, every other day) was included. Over the 28-day course of study, the outcomes of different CEL-2000 and CEL-2003 treatment schedules were compared with Enbrel. In this study, CEL-200 treatment with 2 doses of 33 or 100 nmol were given subcutaneously on days 0 and 7 or on days 0 and 14. CEL-2003 was used at one dose of […] on days 0 and 14. […] The AI score for each paw (4 paws total) were added for each group and reported on FIG. 4.

DLLKNGERIEKVE (listed as Homo sapiens) [J-ICBL, ICBL derived from amino acids 38-50 of the β-2-microglobulin chain of the MHC 1 molecule]
IL-12p70 expressing cells [1]: no significant increase
CD11c expression [2]: no discernible change
CD86 expression [2]: no discernible change

DLLKNGERIEKVEGGGSLKMADPNRFRGKDLP [JgD]
CD11c expression [2]: expressed
CD86 expression [2]: expressed

DLLKNGERIEKVEGGGTGGKPGIAGFKGEQGPKGEP (Heteroconjugate construct) [CEL-2000, Peptide J linked to the human type II collagen peptide 254-273 through a triglycine linker]
progression of arthritis disease (AI score) ([3]; 100 nmol dose (3x treatment) subcutaneously on days 0 and 7, 28-day study): appeared to limit the progression of disease throughout the experimental period
progression of arthritis disease compared with Enbrel ([3]; 2 doses of 33 or 100 nmol s.c. on days 0 and 7 or 0 and 14 (most regimes), Enbrel 3 mg/kg every other day for 28 days): at least as good as those of mice treated with Enbrel®
Student t test comparison of treatment groups with Enbrel ([3]; days 7, 14 and 21, 3x dose days 0 and 14, 3x days 0 and 7, 1x days 0 and 7 or 0 and 14): slightly better than Embrel

SLKMADPNRFRGKDLP [gD]
CD11c expression [2]: no discernible change
CD86 expression [2]: no discernible change
